Laboratory results published in ChEMBL document CHEMBL5291721, “A preclinical secondary pharmacology resource illuminates target-adverse drug reaction associations of marketed drugs” (Nat Commun, 2023).

Tests used:
[1] = molecular target: Vasopressin V2 receptor (Homo sapiens, UniProt P30518)
[2] = molecular target: T1, B2 bradykinin receptor (Homo sapiens, UniProt P30411)
T1 sequence (P30411 whole entry): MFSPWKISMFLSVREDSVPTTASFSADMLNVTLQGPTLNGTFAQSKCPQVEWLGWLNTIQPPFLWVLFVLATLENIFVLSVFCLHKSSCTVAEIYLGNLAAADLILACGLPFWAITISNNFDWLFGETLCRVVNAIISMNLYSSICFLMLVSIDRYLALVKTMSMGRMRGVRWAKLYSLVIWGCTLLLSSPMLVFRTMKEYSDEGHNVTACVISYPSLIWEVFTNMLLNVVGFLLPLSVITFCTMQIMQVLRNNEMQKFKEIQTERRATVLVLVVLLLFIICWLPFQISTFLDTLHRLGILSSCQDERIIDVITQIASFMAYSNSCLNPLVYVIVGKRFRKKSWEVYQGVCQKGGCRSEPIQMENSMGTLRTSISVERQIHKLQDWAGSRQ

[3] = molecular target: T2, Cholecystokinin receptor type A (Homo sapiens, UniProt P32238)
T2 sequence (P32238 whole entry): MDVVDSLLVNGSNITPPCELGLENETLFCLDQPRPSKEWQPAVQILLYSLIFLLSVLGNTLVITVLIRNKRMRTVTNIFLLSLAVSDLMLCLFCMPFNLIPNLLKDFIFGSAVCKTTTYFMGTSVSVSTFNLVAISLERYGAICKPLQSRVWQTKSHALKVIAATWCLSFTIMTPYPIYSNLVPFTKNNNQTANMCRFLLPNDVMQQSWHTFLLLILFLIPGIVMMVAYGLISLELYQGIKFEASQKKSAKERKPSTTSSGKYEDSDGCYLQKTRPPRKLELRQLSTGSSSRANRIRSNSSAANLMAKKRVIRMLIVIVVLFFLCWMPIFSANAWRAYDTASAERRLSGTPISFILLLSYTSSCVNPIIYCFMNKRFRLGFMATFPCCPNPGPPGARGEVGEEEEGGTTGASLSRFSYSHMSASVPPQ

[4] = molecular target: Growth hormone secretagogue receptor type 1 (Homo sapiens, UniProt Q92847)
[5] = molecular target: T3, 5-hydroxytryptamine receptor 1A (Homo sapiens, UniProt P08908); format: functional, cell-based
T3 sequence (P08908 whole entry): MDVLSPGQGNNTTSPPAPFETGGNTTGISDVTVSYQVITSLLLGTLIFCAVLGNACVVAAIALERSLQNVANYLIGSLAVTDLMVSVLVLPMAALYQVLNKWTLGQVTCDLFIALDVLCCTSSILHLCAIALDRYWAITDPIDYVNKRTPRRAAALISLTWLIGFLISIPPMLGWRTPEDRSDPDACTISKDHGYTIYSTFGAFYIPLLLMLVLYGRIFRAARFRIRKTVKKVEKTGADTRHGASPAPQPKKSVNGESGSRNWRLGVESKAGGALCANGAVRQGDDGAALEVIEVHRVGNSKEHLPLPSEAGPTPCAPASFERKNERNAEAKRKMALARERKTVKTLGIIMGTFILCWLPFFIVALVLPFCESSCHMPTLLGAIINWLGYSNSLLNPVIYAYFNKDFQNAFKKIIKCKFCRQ

[6] = molecular target: Motilin receptor (Homo sapiens, UniProt O43193)
[7] = molecular target: T4, Neuropeptide Y receptor type 1 (Homo sapiens, UniProt P25929); details: read-out: AC50
T4 sequence (P25929 whole entry): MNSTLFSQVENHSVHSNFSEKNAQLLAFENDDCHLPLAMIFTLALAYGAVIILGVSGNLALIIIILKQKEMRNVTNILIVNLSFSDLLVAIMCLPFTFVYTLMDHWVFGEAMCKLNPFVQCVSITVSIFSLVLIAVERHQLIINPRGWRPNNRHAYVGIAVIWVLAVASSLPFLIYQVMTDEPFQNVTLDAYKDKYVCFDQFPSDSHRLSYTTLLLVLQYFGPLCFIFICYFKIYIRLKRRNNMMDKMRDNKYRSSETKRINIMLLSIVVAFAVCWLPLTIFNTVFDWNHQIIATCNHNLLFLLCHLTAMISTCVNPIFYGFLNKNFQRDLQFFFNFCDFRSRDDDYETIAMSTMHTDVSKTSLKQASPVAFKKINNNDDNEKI

[8] = molecular target: Delta-type opioid receptor (Homo sapiens, UniProt P41143)
[9] = molecular target: 3',5'-cyclic-AMP phosphodiesterase 4D (Homo sapiens, UniProt Q08499); format: functional
[10] = molecular target: T5, Amine oxidase [flavin-containing] A (Homo sapiens, UniProt P21397); format: functional
T5 sequence (P21397 whole entry): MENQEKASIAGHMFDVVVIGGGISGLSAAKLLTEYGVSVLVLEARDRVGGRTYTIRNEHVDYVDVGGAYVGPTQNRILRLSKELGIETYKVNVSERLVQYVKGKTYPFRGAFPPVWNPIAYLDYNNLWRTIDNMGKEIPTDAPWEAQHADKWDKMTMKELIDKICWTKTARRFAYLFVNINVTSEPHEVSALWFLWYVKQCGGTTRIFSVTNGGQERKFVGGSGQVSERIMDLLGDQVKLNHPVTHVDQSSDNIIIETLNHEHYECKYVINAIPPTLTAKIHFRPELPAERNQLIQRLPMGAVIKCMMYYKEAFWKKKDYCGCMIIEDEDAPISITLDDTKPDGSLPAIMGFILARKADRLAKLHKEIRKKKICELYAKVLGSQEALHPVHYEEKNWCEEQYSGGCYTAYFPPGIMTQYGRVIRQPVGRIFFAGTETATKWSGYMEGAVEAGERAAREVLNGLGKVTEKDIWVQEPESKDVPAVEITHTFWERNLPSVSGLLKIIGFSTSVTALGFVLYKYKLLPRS

[11] = molecular target: cGMP-inhibited 3',5'-cyclic phosphodiesterase 3A (Homo sapiens, UniProt Q14432); format: functional

Measured: AC50
Further: assay procedure not described here.

Chain of cGMP-inhibited 3',5'-cyclic phosphodiesterase 3A (Q14432 whole entry): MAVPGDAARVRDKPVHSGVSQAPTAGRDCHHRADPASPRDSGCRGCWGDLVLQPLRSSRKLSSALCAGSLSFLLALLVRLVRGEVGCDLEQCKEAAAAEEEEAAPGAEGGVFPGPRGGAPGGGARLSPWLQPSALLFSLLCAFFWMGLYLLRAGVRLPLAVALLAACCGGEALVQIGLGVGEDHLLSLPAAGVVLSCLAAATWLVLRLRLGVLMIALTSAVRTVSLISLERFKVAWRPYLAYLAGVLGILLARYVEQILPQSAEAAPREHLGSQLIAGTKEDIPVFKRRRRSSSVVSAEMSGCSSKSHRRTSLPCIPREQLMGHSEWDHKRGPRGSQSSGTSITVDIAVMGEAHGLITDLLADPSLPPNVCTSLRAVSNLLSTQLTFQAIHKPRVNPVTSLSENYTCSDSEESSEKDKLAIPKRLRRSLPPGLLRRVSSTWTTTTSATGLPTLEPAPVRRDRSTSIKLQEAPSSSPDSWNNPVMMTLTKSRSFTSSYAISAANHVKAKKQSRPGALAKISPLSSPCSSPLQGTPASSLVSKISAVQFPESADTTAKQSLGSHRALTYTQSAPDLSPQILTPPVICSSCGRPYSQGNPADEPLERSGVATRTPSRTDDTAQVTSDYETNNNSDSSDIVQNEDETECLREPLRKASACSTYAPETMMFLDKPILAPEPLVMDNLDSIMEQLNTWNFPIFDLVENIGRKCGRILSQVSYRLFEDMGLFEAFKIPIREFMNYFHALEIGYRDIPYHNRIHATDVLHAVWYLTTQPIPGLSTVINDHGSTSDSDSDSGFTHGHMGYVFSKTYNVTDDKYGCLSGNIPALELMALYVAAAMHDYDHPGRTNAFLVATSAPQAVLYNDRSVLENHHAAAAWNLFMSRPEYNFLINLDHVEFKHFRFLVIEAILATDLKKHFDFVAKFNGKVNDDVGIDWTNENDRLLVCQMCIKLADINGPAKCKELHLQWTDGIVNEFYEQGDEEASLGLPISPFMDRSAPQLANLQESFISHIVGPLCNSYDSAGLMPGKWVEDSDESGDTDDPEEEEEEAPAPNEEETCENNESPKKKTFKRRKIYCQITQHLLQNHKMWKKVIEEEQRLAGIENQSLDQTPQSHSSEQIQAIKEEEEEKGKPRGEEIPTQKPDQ
Chain of Motilin receptor (O43193 whole entry): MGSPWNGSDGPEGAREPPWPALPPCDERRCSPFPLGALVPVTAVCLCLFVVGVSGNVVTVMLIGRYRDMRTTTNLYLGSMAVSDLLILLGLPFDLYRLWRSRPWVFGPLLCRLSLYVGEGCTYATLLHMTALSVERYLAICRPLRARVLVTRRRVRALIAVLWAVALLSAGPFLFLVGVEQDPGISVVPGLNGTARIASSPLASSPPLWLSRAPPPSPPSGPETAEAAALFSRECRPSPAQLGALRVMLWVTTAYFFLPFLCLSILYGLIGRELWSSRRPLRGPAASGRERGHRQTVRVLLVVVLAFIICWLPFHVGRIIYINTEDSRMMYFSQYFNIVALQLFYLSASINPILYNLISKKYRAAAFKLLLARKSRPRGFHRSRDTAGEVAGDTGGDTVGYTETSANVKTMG
Chain of Growth hormone secretagogue receptor type 1 (Q92847 whole entry): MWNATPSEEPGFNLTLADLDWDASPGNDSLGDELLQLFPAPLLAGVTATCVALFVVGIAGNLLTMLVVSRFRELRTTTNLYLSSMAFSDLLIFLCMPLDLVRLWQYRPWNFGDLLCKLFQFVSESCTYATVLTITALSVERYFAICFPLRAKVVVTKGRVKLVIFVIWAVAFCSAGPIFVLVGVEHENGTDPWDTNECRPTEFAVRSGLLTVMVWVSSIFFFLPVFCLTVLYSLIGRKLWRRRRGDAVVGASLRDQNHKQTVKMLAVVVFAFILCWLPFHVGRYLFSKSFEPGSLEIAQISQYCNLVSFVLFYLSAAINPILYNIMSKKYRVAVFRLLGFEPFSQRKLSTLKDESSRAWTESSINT
Chain of 3',5'-cyclic-AMP phosphodiesterase 4D (Q08499 whole entry): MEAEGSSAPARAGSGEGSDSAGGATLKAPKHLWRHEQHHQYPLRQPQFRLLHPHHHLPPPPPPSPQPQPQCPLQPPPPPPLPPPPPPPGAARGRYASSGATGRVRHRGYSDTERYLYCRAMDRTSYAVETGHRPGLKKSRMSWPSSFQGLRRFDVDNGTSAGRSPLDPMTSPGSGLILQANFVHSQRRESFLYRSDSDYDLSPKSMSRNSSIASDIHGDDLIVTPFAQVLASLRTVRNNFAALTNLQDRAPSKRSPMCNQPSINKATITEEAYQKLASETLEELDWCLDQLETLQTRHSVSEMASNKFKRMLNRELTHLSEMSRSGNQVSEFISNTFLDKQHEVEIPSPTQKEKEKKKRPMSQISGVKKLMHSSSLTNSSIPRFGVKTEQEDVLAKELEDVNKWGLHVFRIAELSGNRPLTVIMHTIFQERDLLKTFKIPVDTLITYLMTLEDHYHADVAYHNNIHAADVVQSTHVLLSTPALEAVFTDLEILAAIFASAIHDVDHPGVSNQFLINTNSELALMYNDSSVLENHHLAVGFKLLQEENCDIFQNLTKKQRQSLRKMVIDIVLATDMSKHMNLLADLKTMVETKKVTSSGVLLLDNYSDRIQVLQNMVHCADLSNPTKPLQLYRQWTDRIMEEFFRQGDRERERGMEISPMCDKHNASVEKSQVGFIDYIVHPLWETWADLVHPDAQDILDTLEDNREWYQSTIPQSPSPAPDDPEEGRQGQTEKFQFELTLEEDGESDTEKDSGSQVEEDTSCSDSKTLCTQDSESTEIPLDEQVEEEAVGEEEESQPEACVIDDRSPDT
Chain of Delta-type opioid receptor (P41143 whole entry): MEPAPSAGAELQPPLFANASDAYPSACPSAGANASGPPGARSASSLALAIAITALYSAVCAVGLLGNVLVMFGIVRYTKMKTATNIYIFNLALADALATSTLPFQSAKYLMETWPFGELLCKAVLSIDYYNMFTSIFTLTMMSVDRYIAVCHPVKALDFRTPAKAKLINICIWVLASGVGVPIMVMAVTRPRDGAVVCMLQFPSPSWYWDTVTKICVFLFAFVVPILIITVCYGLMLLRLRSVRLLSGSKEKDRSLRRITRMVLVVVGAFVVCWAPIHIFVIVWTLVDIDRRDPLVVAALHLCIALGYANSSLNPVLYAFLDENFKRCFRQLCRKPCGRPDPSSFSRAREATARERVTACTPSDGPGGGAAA
Chain of Vasopressin V2 receptor (P30518 whole entry): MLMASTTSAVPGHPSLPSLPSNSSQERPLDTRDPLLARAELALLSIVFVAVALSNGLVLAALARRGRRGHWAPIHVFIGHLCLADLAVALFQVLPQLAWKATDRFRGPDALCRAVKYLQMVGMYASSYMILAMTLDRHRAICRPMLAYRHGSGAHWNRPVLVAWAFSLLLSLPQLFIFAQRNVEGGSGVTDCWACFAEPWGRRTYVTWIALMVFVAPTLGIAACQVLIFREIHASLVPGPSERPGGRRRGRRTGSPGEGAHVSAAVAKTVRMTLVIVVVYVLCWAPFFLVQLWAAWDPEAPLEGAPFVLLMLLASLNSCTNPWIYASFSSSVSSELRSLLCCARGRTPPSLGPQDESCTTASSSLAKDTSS

C=CCNc1nc(NCC=C)nc(N2CCN(C(c3ccc(F)cc3)c3ccc(F)cc3)CC2)n1 [ALMITRINE]
> 30 µM: [1] | [2] | [3] | [4] | [5] | [6] | [7] | [8] | [9] | [10] | [11]

CC(C(=O)O)c1ccc(-c2ccccc2)c(F)c1 (stereo unspecified) [FLURBIPROFEN]
> 30 µM: [8] | [9] | [11]
> 10 µM: [1] | [2] | [3] | [4] | [5] | [6] | [7] | [10]

COCC1=C(C(=O)O)N2C(=O)[C@@H](NC(=O)/C(=N\OC)c3csc(N)n3)[C@H]2SC1 [CEFPODOXIME]
> 30 µM: [1] | [2] | [3] | [4] | [5] | [6] | [7] | [8] | [9] | [10] | [11]

Nc1ncn([C@H]2C[C@H](O)[C@@H](CO)O2)c(=O)n1 [DECITABINE]
> 30 µM: [1] | [2] | [3] | [4] | [5] | [6] | [7] | [8] | [9] | [10] | [11]

CCOC(=O)c1cncn1[C@H](C)c1ccccc1 [ETOMIDATE]
> 10 µM: [1] | [2] | [3] | [4] | [5] | [6] | [7] | [10]
> 30 µM: [8] | [9] | [11]

CC(C)NCC(O)c1ccc(O)c(O)c1 (stereo unspecified) [ISOPROTERENOL]
18 µM: [11]
> 30 µM: [1] | [2] | [3] | [4] | [7] | [9]
> 10 µM: [5] | [6] | [8] | [10]

CCC(=O)O[C@]1(C(=O)SCF)[C@H](C)C[C@H]2[C@@H]3C[C@H](F)C4=CC(=O)C=C[C@]4(C)[C@@]3(F)[C@@H](O)C[C@@]21C [FLUTICASONE PROPIONATE]
> 30 µM: [1] | [2] | [3] | [4] | [5] | [6] | [7] | [8] | [9] | [10] | [11]

CC(C(=O)O)c1ccc(CC2CCCC2=O)cc1 (stereo unspecified) [LOXOPROFEN]
> 30 µM: [1] | [2] | [3] | [4] | [5] | [6] | [7] | [8] | [9] | [10] | [11]

CC(CCc1ccc(O)cc1)NCCc1ccc(O)c(O)c1 (stereo unspecified) [DOBUTAMINE]
> 30 µM: [1] | [2] | [3] | [4] | [5] | [6] | [7] | [8] | [9] | [10] | [11]

Clc1ccc2c(N3CCN(CCCN4CCN(c5ccnc6cc(Cl)ccc56)CC4)CC3)ccnc2c1 [PIPERAQUINE]
22 µM: [9]
> 30 µM: [1] | [2] | [3] | [4] | [5] | [6] | [7] | [8] | [10]
4.7 µM: [11]

CC1(C)S[C@@H]2[C@H](NC(=O)[C@H](N)c3ccccc3)C(=O)N2[C@H]1C(=O)OCOC(=O)[C@@H]1N2C(=O)C[C@H]2S(=O)(=O)C1(C)C [SULTAMICILLIN]
> 30 µM: [1] | [2] | [3] | [4] | [5] | [6] | [7] | [8] | [9] | [10] | [11]

CCCCC(=O)O[C@]1(C(=O)CO)[C@@H](C)C[C@H]2[C@@H]3CCC4=CC(=O)C=C[C@]4(C)[C@@]3(F)[C@@H](O)C[C@@]21C [BETAMETHASONE VALERATE]
> 30 µM: [1] | [2] | [3] | [4] | [5] | [7] | [8] | [9] | [11]
> 10 µM: [6] | [10]

CC(C)[C@H](N)C(=O)OCC(CO)OCn1cnc2c(=O)nc(N)[nH]c21 (stereo partly specified) [VALGANCICLOVIR]
> 30 µM: [1] | [2] | [3] | [4] | [5] | [6] | [7] | [8] | [9] | [10]
7 µM: [11]

CC(=O)N[C@@H](CS)C(=O)O [ACETYLCYSTEINE]
> 30 µM: [1] | [2] | [3] | [4] | [5] | [6] | [7] | [8] | [9] | [10] | [11]

CCC1(c2ccccc2)CCC(=O)NC1=O (stereo unspecified) [GLUTETHIMIDE]
> 30 µM: [5] | [8] | [9] | [11]
> 10 µM: [1] | [2] | [3] | [4] | [6] | [7] | [10]

C/N=C(\NC)NCc1ccccc1 [BETHANIDINE]
> 30 µM: [1] | [2] | [3] | [4] | [5] | [6] | [7] | [8] | [9] | [10] | [11]
